PubChem BioAssay AID248 (DTP/NCI, 2004)
Several values for one entry are separate records, joined by “and”; a condition that tells them apart may be missing. Identical values can stand only once. Toxic doses and inconclusive results are not listed. Rule as the data show it: active = T/C of 150% or more; inactive = T/C below 125%.

System: L1210 leukemia ip in BDF1 mice, survival T/C
Experiment: NCI In Vivo Anticancer Drug Screen. Data for tumor model L1210 Leukemia (intraperitoneal) in B6D2F1 (BDF1) mice
Conditions: endpoint: mean survival time, higher = longer survival
In short: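 Tumor cells were implanted, animals were treated, and survival was followed. The result divides the treated measurement by the vehicle-control measurement.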

[1] = dose: 75.0 mg/kg/injection, schedule: Q01DX001 (ip), vehicle: saline
[2] = dose: 150.0 mg/kg/injection, schedule: Q01DX001 (ip), vehicle: saline
[3] = dose: 100.0 mg/kg/injection, schedule: Q04DX002 (ip), vehicle: saline
[4] = dose: 200.0 mg/kg/injection, schedule: Q04DX002 (ip), vehicle: saline
[5] = dose: 400.0 mg/kg/injection, schedule: Q04DX002 (ip), vehicle: saline
[6] = dose: 100.0 mg/kg/injection, schedule: Q01DX001 (ip), vehicle: saline
[7] = dose: 100.0 mg/kg/injection, schedule: Q01DX009 (ip), vehicle: saline with Tween-80
[8] = dose: 200.0 mg/kg/injection, schedule: Q01DX001 (ip), vehicle: saline
[9] = dose: 200.0 mg/kg/injection, schedule: Q01DX009 (ip), vehicle: saline with Tween-80
[10] = dose: 400.0 mg/kg/injection, schedule: Q01DX001 (ip), vehicle: saline
[11] = dose: 400.0 mg/kg/injection, schedule: Q01DX009 (ip), vehicle: saline with Tween-80
[12] = dose: 100.0 mg/kg/injection, schedule: Q01DX001 (ip), vehicle: Klucel (hydroxypropylcellulose) (HPC)
[13] = dose: 400.0 mg/kg/injection, schedule: Q01DX001 (ip), vehicle: Klucel (hydroxypropylcellulose) (HPC)
[14] = dose: 100.0 mg/kg/injection, schedule: Q04DX003 (ip), vehicle: Klucel (hydroxypropylcellulose) (HPC)
[15] = dose: 200.0 mg/kg/injection, schedule: Q04DX003 (ip), vehicle: Klucel (hydroxypropylcellulose) (HPC)
[16] = dose: 100.0 mg/kg/injection, schedule: Q01DX001 (ip), vehicle: carboxymethylcellulose (CMC)
[17] = dose: 200.0 mg/kg/injection, schedule: Q01DX001 (ip), vehicle: carboxymethylcellulose (CMC)
[18] = dose: 400.0 mg/kg/injection, schedule: Q01DX001 (ip), vehicle: carboxymethylcellulose (CMC)
[19] = dose: 100.0 mg/kg/injection, schedule: Q04DX003 (ip), vehicle: saline with Tween-80
[20] = dose: 200.0 mg/kg/injection, schedule: Q04DX003 (ip), vehicle: saline with Tween-80
[21] = dose: 100.0 mg/kg/injection, schedule: Q04DX002 (ip), vehicle: Klucel (hydroxypropylcellulose) (HPC)
[22] = dose: 400.0 mg/kg/injection, schedule: Q04DX002 (ip), vehicle: Klucel (hydroxypropylcellulose) (HPC)

Measured: T/C

c1ccc(-c2c(-c3ccccc3)c(-c3ccccc3)c(-c3ccc(Oc4ccc(-c5c(-c6ccccc6)c(-c6ccccc6)c(-c6ccccc6)c(-c6ccccc6)c5-c5ccccc5)cc4)cc3)c(-c3ccccc3)c2-c2ccccc2)cc1
inactive: dose: 100.0 mg/kg/injection, schedule: Q01DX001 (ip), vehicle: saline with Tween-80 92 % of control | dose: 200.0 mg/kg/injection, schedule: Q01DX001 (ip), vehicle: saline with Tween-80 92 % of control | dose: 400.0 mg/kg/injection, schedule: Q01DX001 (ip), vehicle: saline with Tween-80 100 % of control

CCCC[n+]1ccc(C#N)cc1
inactive: [1] 103 % of control | [2] 95 % of control

C=CCSc1nc2c(=O)[nH]cnc2n1C1OC(CO)C(O)C1O (stereo not given)
inactive: dose: 100.0 mg/kg/injection, schedule: Q01DX005 (ip), vehicle: saline 98 % of control | dose: 200.0 mg/kg/injection, schedule: Q01DX005 (ip), vehicle: saline 101 % of control

Cc1nccn1-c1ccccc1N=Cc1ccc(N(CCCl)CCCl)cc1Cl
inactive: [3] 102 % of control | [4] 102 % of control | [5] 98 % of control

Cc1ccccc1Sc1cc2ccccc2c2ccccc12
inactive: [6] 94 % of control | [7] 96 % of control | [8] 97 % of control | [9] 98 % of control | [10] 94 % of control | [11] 101 % of control

CCOC(=O)C(CC(OCC)OCC)C1=NC(C)(C)CC(C)O1 (stereo not given)
inactive: [12] 105 % of control | dose: 200.0 mg/kg/injection, schedule: Q01DX001 (ip), vehicle: Klucel (hydroxypropylcellulose) (HPC) 89 % of control | [13] 100 % of control

COC(=O)c1c(OC)ccc2c1CC1C3Nc4ccccc4C3CCN1C2 (stereo not given)
inactive: [14] 94 % of control | [15] 90 % of control | dose: 400.0 mg/kg/injection, schedule: Q04DX003 (ip), vehicle: Klucel (hydroxypropylcellulose) (HPC) 90 % of control

COc1cc(N(CCCl)CCCl)ccc1C=Nc1cccc(Cl)c1
inactive: dose: 50.0 mg/kg/injection, schedule: Q01DX001 (ip), vehicle: carboxymethylcellulose (CMC) 114 % of control | [16] 111 % of control | [17] 100 % of control | [18] 100 % of control

NNS(=O)(=O)CCCCCCCCCCC(=O)O
inactive: dose: 50.0 mg/kg/injection, schedule: Q01DX009 (ip), vehicle: saline with Tween-80 99 % of control | [7] 96 % of control | [19] 92 % of control | [9] 91 % of control | [20] 90 % of control

Cc1ccc(C(=O)CC(Sc2ccccc2N)c2cccc([N+](=O)[O-])c2)cc1 (stereo not given)
inactive: dose: 100.0 mg/kg/injection, schedule: Q01DX005 (ip), vehicle: Klucel (hydroxypropylcellulose) (HPC) 93 % of control | dose: 100.0 mg/kg/injection, schedule: Q01DX009 (ip), vehicle: Klucel (hydroxypropylcellulose) (HPC) 97 % of control | [21] 98 % of control | dose: 200.0 mg/kg/injection, schedule: Q01DX005 (ip), vehicle: Klucel (hydroxypropylcellulose) (HPC) 96 % of control | dose: 200.0 mg/kg/injection, schedule: Q01DX009 (ip), vehicle: Klucel (hydroxypropylcellulose) (HPC) 94 % of control | dose: 400.0 mg/kg/injection, schedule: Q01DX005 (ip), vehicle: Klucel (hydroxypropylcellulose) (HPC) 115 % of control | dose: 400.0 mg/kg/injection, schedule: Q01DX009 (ip), vehicle: Klucel (hydroxypropylcellulose) (HPC) 97 % of control | [22] 95 % of control

CC(C)CCC[C@@H](C)[C@H]1CC[C@H]2[C@@H]3CC[C@H]4C[C@H]5N[C@H]5C[C@]4(C)[C@H]3CC[C@]12C
inactive: [12] 93 % of control | [13] 90 % of control

CCCN=Cc1cnc(C#N)c(N)n1
inactive: [21] 97 % of control | dose: 200.0 mg/kg/injection, schedule: Q04DX002 (ip), vehicle: Klucel (hydroxypropylcellulose) (HPC) 94 % of control | [22] 97 % of control

N#Cc1sc2ccccc2c1O
inactive: dose: 50.0 mg/kg/injection, schedule: Q04DX003 (ip), vehicle: Klucel (hydroxypropylcellulose) (HPC) 106 % of control | [14] 97 % of control | [15] 95 % of control

O=C1OCCN1c1ccc(S(=O)(=O)c2ccc(N3CCOC3=O)cc2)cc1
inactive: [7] 98 % of control | [19] 102 % of control | [9] 93 % of control | [20] 102 % of control | [11] 95 % of control | dose: 400.0 mg/kg/injection, schedule: Q04DX003 (ip), vehicle: saline with Tween-80 96 % of control

CCOP(=S)(OCC)N1c2ccccc2Sc2ccccc21
inactive: [19] 92 % of control | [20] 91 % of control

CCCCNC(=O)C(F)(F)F
inactive: dose: 100.0 mg/kg/injection, schedule: Q01DX001 (ip), vehicle: other 100 % of control | dose: 200.0 mg/kg/injection, schedule: Q01DX001 (ip), vehicle: other 98 % of control | dose: 400.0 mg/kg/injection, schedule: Q01DX001 (ip), vehicle: other 98 % of control

CCCCS(=O)(=O)F
inactive: dose: 100.0 mg/kg/injection, schedule: Q04DX002 (ip), vehicle: saline with Tween-80 93 % of control

CC(C)(SCc1ccccc1)C(N)C(=O)O (stereo not given)
inactive: [1] 104 % of control | dose: 100.0 mg/kg/injection, schedule: Q01DX009 (ip), vehicle: saline 91 % of control | dose: 100.0 mg/kg/injection, schedule: Q04DX003 (ip), vehicle: saline 105 % of control | [2] 98 % of control | dose: 200.0 mg/kg/injection, schedule: Q01DX009 (ip), vehicle: saline 98 % of control | dose: 200.0 mg/kg/injection, schedule: Q04DX003 (ip), vehicle: saline 102 % of control | dose: 400.0 mg/kg/injection, schedule: Q01DX009 (ip), vehicle: saline 91 % of control | dose: 400.0 mg/kg/injection, schedule: Q04DX003 (ip), vehicle: saline 97 % of control

ON=C1CSSC1
inactive: dose: 1.0 mg/kg/injection, schedule: Q01DX009 (ip), vehicle: saline with Tween-80 97 % of control | dose: 1.56 mg/kg/injection, schedule: Q04DX003 (ip), vehicle: saline with Tween-80 97 % of control | dose: 2.0 mg/kg/injection, schedule: Q01DX009 (ip), vehicle: saline with Tween-80 97 % of control | dose: 3.12 mg/kg/injection, schedule: Q04DX003 (ip), vehicle: saline with Tween-80 106 % of control | dose: 4.0 mg/kg/injection, schedule: Q01DX009 (ip), vehicle: saline with Tween-80 101 % of control | dose: 6.25 mg/kg/injection, schedule: Q04DX003 (ip), vehicle: saline with Tween-80 101 % of control | dose: 8.0 mg/kg/injection, schedule: Q01DX009 (ip), vehicle: saline with Tween-80 104 % of control | dose: 12.5 mg/kg/injection, schedule: Q04DX003 (ip), vehicle: saline with Tween-80 89 % of control and 90 % of control

O=C(Oc1cccc([N+](=O)[O-])c1)c1ccc([N+](=O)[O-])cc1O
inactive: [6] 95 % of control | [8] 95 % of control | [10] 97 % of control

CC(C)CCC[C@@H](C)[C@H]1CC[C@H]2[C@@H]3CC=C4C(C)(C)C(=O)CC[C@]4(C)[C@H]3CC[C@]12C
inactive: dose: 100.0 mg/kg/injection, schedule: Q01DX001 (sc), vehicle: steriod suspending solution 97 % of control | dose: 200.0 mg/kg/injection, schedule: Q01DX001 (sc), vehicle: steriod suspending solution 98 % of control | dose: 400.0 mg/kg/injection, schedule: Q01DX001 (sc), vehicle: steriod suspending solution 97 % of control

CC1(C)CC(C(N)=O)C(C)(C)N1O (stereo not given)
inactive: dose: 75.0 mg/kg/injection, schedule: Q01DX009 (ip), vehicle: other 104 % of control | dose: 150.0 mg/kg/injection, schedule: Q01DX009 (ip), vehicle: other 101 % of control | dose: 300.0 mg/kg/injection, schedule: Q01DX009 (ip), vehicle: other 100 % of control

CC(N)CN (stereo not given)
inactive: [3] 100 % of control | [4] 89 % of control | [5] 103 % of control

C=CCc1cc2c(cc(OC)c1=O)C(NC(C)=O)CCc1cc(OC)c(OC)c(OC)c1-2 (stereo not given)
inactive: [16] 106 % of control | [17] 109 % of control | [18] 114 % of control
